Tested on: Talaromyces emersonii (CBS 236.58)
Assay: Heat treatment of Talaromyces emersonii spores in ice tea with natamycin, visual growth
Format: cell-based
Parameters: key to growth or no growth: growth (+); no growth (−)
Description: Commercially available ice tea (Lipton, peach flavor, non-carbonated, 1.5 L) was adjusted to high water hardness by adding 1 ml of a solution of 39 g CaCl2 and 27 g MgCl2 added to 934 g water. ⅓ of this ice tea preparation (the pH of which was 3.15) was left as-such, ⅓ of the preparation was enriched with 5 ppm natamycin and ⅓ of the preparation was enriched with 10 ppm natamycin. Samples of 5 ml were made from each preparation in 15 ml sterile plastic tubes. Of each preparation 8 samples were pre-heated to the desired pasteurization temperature using a water bath. Temperatures used were RT, 60, 65, 70, 75, 80, 85 and 90° C. When the desired temperature was reached, 100 μl of a 2500 spores/ml spore suspension of Aspergillus niger ATCC 9029AA was added to each tube. Subsequently, the samples were kept for 30 seconds at the temperature in question in the water bath. Next, the samples were cooled on ice to a temperature of 25° C. Samples were incubated at 25° C. and visually examined for growth (formation of mold flakes or turbidity) for two months. Additionally, samples were enumerated according to ISO protocol 21527-1.2008 on day 0 (before heat treatment) and day 1 (after heat treatment) to count immediate loss of viability. […] For the results, see Table 1. […] Example 1 was repeated however with Talaromyces emersonii (CBS 236.58, 1000 spores/ml) instead of Aspergillus niger.

C[C@@H]1C/C=C/C=C/C=C/C=C/[C@H](O[C@@H]2O[C@H](C)[C@@H](O)[C@H](N)[C@@H]2O)C[C@@H]2O[C@](O)(C[C@@H](O)C[C@H]3O[C@@H]3/C=C/C(=O)O1)C[C@H](O)[C@H]2C(=O)O [natamycin]
delayed germination: germination (RT, 5 or 10 ppm natamycin)
+: growth or no growth (65°C, 5 ppm, day 4) | growth or no growth (65°C, 5 ppm, day 5) | growth or no growth (65°C, 5 ppm, day 6) | growth or no growth (65°C, 5 ppm, day 7) | growth or no growth (65°C, 5 ppm, day 8) | growth or no growth (65°C, 5 ppm, day 9) | growth or no growth (65°C, 5 ppm, day 10) | growth or no growth (65°C, 5 ppm, day 11) | growth or no growth (65°C, 5 ppm, day 12) | growth or no growth (65°C, 5 ppm, day 13) | growth or no growth (65°C, 5 ppm, day 14) | growth or no growth (75°C, 5 ppm, day 9) | growth or no growth (75°C, 5 ppm, day 10) | growth or no growth (RT, 10 ppm, day 7) | growth or no growth (RT, 10 ppm, day 8) | growth or no growth (RT, 10 ppm, day 9) | growth or no growth (RT, 10 ppm, day 10) | growth or no growth (RT, 10 ppm, day 11) | growth or no growth (RT, 10 ppm, day 12) | growth or no growth (RT, 10 ppm, day 13) | growth or no growth (RT, 10 ppm, day 14)
no germination occurred: germination (75° C., 10 ppm natamycin) | germination (85° C., both concentrations (5 and 10 ppm))
−: growth or no growth (60°C, 5 ppm, day 1) | growth or no growth (60°C, 5 ppm, day 2) | growth or no growth (60°C, 5 ppm, day 3) | growth or no growth (60°C, 5 ppm, day 4) | growth or no growth (60°C, 5 ppm, day 5) | growth or no growth (60°C, 5 ppm, day 6) | growth or no growth (60°C, 5 ppm, day 7) | growth or no growth (60°C, 5 ppm, day 8) | growth or no growth (60°C, 5 ppm, day 9) | growth or no growth (60°C, 5 ppm, day 10) | growth or no growth (60°C, 5 ppm, day 11) | growth or no growth (60°C, 5 ppm, day 12) | growth or no growth (60°C, 5 ppm, day 13) | growth or no growth (60°C, 5 ppm, day 14) | growth or no growth (60°C, 10 ppm, day 1) | growth or no growth (60°C, 10 ppm, day 2) | growth or no growth (60°C, 10 ppm, day 3) | growth or no growth (60°C, 10 ppm, day 4) | growth or no growth (60°C, 10 ppm, day 5) | growth or no growth (60°C, 10 ppm, day 6) | growth or no growth (60°C, 10 ppm, day 7) | growth or no growth (60°C, 10 ppm, day 8) | growth or no growth (60°C, 10 ppm, day 9) | growth or no growth (60°C, 10 ppm, day 10) | growth or no growth (60°C, 10 ppm, day 11) | growth or no growth (60°C, 10 ppm, day 12) | growth or no growth (60°C, 10 ppm, day 13) | growth or no growth (60°C, 10 ppm, day 14) | growth or no growth (65°C, 5 ppm, day 1) | growth or no growth (65°C, 5 ppm, day 2) | growth or no growth (65°C, 5 ppm, day 3) | growth or no growth (65°C, 10 ppm, day 1) | growth or no growth (65°C, 10 ppm, day 2) | growth or no growth (65°C, 10 ppm, day 3) | growth or no growth (65°C, 10 ppm, day 4) | growth or no growth (65°C, 10 ppm, day 5) | growth or no growth (65°C, 10 ppm, day 6) | growth or no growth (65°C, 10 ppm, day 7) | growth or no growth (65°C, 10 ppm, day 8) | growth or no growth (65°C, 10 ppm, day 9) | growth or no growth (65°C, 10 ppm, day 10) | growth or no growth (65°C, 10 ppm, day 11) | growth or no growth (65°C, 10 ppm, day 12) | growth or no growth (65°C, 10 ppm, day 13) | growth or no growth (65°C, 10 ppm, day 14) | growth or no growth (70°C, 5 ppm, day 1) | growth or no growth (70°C, 5 ppm, day 2) | growth or no growth (70°C, 5 ppm, day 3) | growth or no growth (70°C, 5 ppm, day 4) | growth or no growth (70°C, 5 ppm, day 5) | growth or no growth (70°C, 5 ppm, day 6) | growth or no growth (70°C, 5 ppm, day 7) | growth or no growth (70°C, 5 ppm, day 8) | growth or no growth (70°C, 5 ppm, day 9) | growth or no growth (70°C, 5 ppm, day 10) | growth or no growth (70°C, 5 ppm, day 11) | growth or no growth (70°C, 5 ppm, day 12) | growth or no growth (70°C, 5 ppm, day 13) | growth or no growth (70°C, 5 ppm, day 14) | growth or no growth (70°C, 10 ppm, day 1) | growth or no growth (70°C, 10 ppm, day 2) | growth or no growth (70°C, 10 ppm, day 3) | growth or no growth (70°C, 10 ppm, day 4) | growth or no growth (70°C, 10 ppm, day 5) | growth or no growth (70°C, 10 ppm, day 6) | growth or no growth (70°C, 10 ppm, day 7) | growth or no growth (70°C, 10 ppm, day 8) | growth or no growth (70°C, 10 ppm, day 9) | growth or no growth (70°C, 10 ppm, day 10) | growth or no growth (70°C, 10 ppm, day 11) | growth or no growth (70°C, 10 ppm, day 12) | growth or no growth (70°C, 10 ppm, day 13) | growth or no growth (70°C, 10 ppm, day 14) | growth or no growth (RT, 10 ppm, day 1) | growth or no growth (RT, 10 ppm, day 2) | growth or no growth (RT, 10 ppm, day 3) | growth or no growth (RT, 10 ppm, day 4) | growth or no growth (RT, 10 ppm, day 5) | growth or no growth (RT, 10 ppm, day 6)

Reference: patent US12102089B2, “Method for inactivating mold spores” (DSM IP ASSETS B.V., priority 2017, dated 2024)
